Measurements as given in US6699287B2, “Dermal scaffold using alkaline pre-treated chitosan matrix or alkaline pre-treated chitosan and alkaline pre-treated collagen mixed matrix” (Korea Atomic Energy Research Institute, priority 1999, dated 2004).

Test system: human dermal fibroblast cells
Test: Cytotoxicity test of chitosan derivates in vitro (MTT)
Type: cell-based
Details: 48 hours after treatment
Experimental: 1×10^4 of human dermal fibroblast cells in 96 well plate were cultured in DMEM medium supplemented with 100 μl of 10% serum. Then, the cultured cells were treated with 5, 50, and 500 ng/ml of chitosan oligomer, CM-chitin and 3,6-S-chitin, respectively. 48 hours after treatment, MTT (3-[4,5-dimethylthiazol-2-yl]-2,5-diphenyltetrazolium bromide; Thiazolyl blue, Sigma Product No. M5655) was added thereto and then, the mixture was allowed to stand for 4 hours. After removal of the culture medium, the resultant mixture was washed with phosphate buffered saline 2-3 times and 100 μl of DMSO (dimethylsulfoxide) was added thereto. After chromogenesis, an absorbance was measured at 545 nm on each well using ELISA reader.

Substance: CM-chitin
- Viability Assay Result Of Human Dermal Fibroblasts (MTT absorbance at 545 nm) (5 ng/ml): 0.603
- Viability Assay Result Of Human Dermal Fibroblasts (MTT absorbance at 545 nm) (50 ng/ml): 0.630
- Viability Assay Result Of Human Dermal Fibroblasts (MTT absorbance at 545 nm) (500 ng/ml): 0.603

Substance: 3,6-S-chitin
- Viability Assay Result Of Human Dermal Fibroblasts (MTT absorbance at 545 nm) (5 ng/ml): 0.608
- Viability Assay Result Of Human Dermal Fibroblasts (MTT absorbance at 545 nm) (50 ng/ml): 0.727
- Viability Assay Result Of Human Dermal Fibroblasts (MTT absorbance at 545 nm) (500 ng/ml): 0.595

Substance: chitosan oligomer
- Viability Assay Result Of Human Dermal Fibroblasts (MTT absorbance at 545 nm) (5 ng/ml): 0.629
- Viability Assay Result Of Human Dermal Fibroblasts (MTT absorbance at 545 nm) (50 ng/ml): 0.618
- Viability Assay Result Of Human Dermal Fibroblasts (MTT absorbance at 545 nm) (500 ng/ml): 0.733
